Measurements: patent US8901133B2, “Heterocyclic compounds and uses thereof” (Infinity Pharmaceuticals, Inc., priority 2010, dated 2014)

Legend:
PI3Kγ = molecular target: T1, PI3Kγ (Homo sapiens, UniProt P48736); assay: PI3 Kinase HTRF assay, PI3Kγ; type: biochemical; details: 10 μM PIP2, 10 μM ATP; read-out: PI3K γ IC50
T1 construct: purchased Millipore Corporation 14-558-K
In short: (§1)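 Recombinant human PI3K isoform converts 10 μM PIP2 to PIP3 with 10 μM ATP, 1 h at room temperature after 15 min compound preincubation; 2% DMSO. PIP3 read by HTRF competition with biotin-PIP3/GST-GRP1 PH domain. IC50 from 12-point curve, 20 μM to 0.1 nM, nonlinear regression.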

PI3Kβ = molecular target: T2, PI3Kβ (Homo sapiens, UniProt P42338); assay: PI3 Kinase HTRF assay, PI3Kβ; type: biochemical; details: 10 μM PIP2, 10 μM ATP; read-out: PI3K β IC50
T2 construct: purchased Millipore Corporation 14-603-K
In short: as §1

Balb/c splenic B cells = assay: B cell activation and proliferation assay (Alamar Blue); type: cell-based; details: Mus musculus, read-out: B cell prolif. IC50
Procedure: The ability of one or more subject compounds to inhibit B cell activation and proliferation is determined according to standard procedures known in the art. For example, an in vitro cellular proliferation assay is established that measures the metabolic activity of live cells. The assay is performed in a 96 well microtiter plate using Alamar Blue reduction. Balb/c splenic B cells are purified over a Ficoll-Paque™ PLUS gradient followed by magnetic cell separation using a MACS B cell Isolation Kit (Miletenyi). Cells are plated in 90 ul at 50,000 cells/well in B Cell Media (RPMI+10% FBS+Penn/Strep+50 uM bME+5 mM HEPES). A compound disclosed herein is diluted in B Cell Media and added in a 10 μl volume. Plates are incubated for 30 min at 37 C and 5% CO2 (0.2% DMSO final concentration). A 50 μl B cell stimulation cocktail is then added containing either 10 ug/ml LPS or 5 ug/ml F(ab′)2 Donkey anti-mouse IgM plus 2 ng/ml recombinant mouse IL4 in B Cell Media. Plates are incubated for 72 hours at 37° C. and 5% CO2. A volume of 15 μl of Alamar Blue reagent is added to each well and plates are incubated for 5 hours at 37 C and 5% CO2. Alamar Blue fluoresce is read at 560Ex/590Em, and IC50 or EC50 values are calculated using GraphPad Prism 5.

PI3Kα = molecular target: T3, PI3Kα (Homo sapiens, UniProt P42336); assay: PI3 Kinase HTRF assay, PI3Kα; type: biochemical; details: 10 μM PIP2, 10 μM ATP; read-out: PI3K α IC50
T3 construct: purchased Millipore Corporation 14-602-K
In short: as §1

PI3Kδ = molecular target: T4, PI3Kδ (Homo sapiens, UniProt O00329); assay: PI3 Kinase HTRF assay, PI3Kδ; type: biochemical; details: 10 μM PIP2, 10 μM ATP; read-out: PI3K δ IC50
T4 construct: purchased Millipore Corporation 14-604-K
In short: as §1

T3 sequence (P42336 whole entry): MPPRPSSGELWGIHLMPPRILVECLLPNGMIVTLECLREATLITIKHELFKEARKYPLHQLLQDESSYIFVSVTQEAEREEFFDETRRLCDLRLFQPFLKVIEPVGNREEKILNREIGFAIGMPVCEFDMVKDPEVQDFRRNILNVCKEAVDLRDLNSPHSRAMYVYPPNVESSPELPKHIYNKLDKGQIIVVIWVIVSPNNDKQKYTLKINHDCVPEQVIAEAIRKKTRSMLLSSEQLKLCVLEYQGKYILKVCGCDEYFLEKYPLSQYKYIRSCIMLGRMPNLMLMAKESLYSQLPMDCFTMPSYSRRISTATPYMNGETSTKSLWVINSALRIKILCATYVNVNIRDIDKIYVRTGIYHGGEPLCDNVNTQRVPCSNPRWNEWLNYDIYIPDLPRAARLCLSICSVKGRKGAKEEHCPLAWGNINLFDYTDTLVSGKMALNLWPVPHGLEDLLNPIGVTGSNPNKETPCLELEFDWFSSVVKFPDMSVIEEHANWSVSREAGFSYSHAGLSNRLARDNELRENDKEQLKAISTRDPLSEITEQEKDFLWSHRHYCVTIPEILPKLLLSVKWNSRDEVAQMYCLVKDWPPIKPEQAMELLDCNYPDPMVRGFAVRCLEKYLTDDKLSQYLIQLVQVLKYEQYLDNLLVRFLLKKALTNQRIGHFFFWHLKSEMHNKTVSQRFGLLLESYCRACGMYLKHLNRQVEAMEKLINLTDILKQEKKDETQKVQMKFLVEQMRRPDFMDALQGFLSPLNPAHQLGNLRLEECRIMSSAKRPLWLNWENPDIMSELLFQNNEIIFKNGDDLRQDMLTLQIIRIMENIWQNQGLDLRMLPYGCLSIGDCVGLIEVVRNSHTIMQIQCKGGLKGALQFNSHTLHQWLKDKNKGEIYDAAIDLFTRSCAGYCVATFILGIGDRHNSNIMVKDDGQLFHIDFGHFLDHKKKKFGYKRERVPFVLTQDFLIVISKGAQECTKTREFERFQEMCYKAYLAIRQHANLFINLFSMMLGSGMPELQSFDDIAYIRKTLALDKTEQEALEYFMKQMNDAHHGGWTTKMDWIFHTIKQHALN
T3 sequence (P27986 whole entry partner): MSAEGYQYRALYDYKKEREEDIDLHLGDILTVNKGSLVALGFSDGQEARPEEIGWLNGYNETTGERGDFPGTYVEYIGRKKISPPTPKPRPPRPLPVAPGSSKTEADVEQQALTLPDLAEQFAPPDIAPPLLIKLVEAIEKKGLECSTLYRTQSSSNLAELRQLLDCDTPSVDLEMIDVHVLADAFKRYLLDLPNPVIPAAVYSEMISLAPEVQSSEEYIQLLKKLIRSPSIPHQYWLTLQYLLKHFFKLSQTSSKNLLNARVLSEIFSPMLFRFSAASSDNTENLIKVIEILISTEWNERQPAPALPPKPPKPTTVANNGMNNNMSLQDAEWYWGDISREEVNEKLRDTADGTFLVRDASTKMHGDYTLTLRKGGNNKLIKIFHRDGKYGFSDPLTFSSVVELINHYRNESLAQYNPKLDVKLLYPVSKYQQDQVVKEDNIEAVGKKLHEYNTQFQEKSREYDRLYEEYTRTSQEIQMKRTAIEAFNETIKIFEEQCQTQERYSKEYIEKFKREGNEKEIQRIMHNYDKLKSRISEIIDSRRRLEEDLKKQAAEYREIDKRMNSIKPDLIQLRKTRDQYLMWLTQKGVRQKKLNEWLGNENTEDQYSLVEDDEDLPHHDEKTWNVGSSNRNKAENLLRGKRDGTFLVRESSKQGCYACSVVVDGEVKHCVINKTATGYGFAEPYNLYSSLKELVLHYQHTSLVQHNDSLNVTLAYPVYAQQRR
T1 sequence (P48736 whole entry): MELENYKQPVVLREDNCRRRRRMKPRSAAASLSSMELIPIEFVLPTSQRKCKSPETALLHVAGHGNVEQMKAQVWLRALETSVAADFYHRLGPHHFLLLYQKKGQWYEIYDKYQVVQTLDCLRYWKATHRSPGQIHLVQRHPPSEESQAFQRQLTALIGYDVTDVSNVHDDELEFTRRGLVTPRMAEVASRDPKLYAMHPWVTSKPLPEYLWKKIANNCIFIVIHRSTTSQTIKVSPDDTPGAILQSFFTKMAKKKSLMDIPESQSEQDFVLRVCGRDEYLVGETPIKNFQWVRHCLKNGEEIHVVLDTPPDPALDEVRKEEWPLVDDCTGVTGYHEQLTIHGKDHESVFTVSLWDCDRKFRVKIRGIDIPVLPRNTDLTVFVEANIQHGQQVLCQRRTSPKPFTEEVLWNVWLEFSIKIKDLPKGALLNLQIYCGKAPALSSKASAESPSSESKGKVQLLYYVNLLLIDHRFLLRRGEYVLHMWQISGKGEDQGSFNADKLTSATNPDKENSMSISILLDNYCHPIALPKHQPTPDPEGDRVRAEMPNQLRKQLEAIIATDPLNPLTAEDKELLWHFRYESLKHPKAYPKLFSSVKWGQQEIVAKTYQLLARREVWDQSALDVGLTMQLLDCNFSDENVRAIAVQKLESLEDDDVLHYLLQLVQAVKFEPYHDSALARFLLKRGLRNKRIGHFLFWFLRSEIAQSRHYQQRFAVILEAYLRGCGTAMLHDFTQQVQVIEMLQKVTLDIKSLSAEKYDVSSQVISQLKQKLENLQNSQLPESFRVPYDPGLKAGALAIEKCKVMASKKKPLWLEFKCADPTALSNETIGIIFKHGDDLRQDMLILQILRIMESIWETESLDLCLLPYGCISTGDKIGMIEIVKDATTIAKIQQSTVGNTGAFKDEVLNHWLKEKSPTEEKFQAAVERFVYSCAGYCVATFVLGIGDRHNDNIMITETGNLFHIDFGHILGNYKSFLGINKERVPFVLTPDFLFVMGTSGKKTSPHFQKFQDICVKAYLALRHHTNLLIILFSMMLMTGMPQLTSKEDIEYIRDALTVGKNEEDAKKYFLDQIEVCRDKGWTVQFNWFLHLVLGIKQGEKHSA
T2 sequence (P42338 whole entry): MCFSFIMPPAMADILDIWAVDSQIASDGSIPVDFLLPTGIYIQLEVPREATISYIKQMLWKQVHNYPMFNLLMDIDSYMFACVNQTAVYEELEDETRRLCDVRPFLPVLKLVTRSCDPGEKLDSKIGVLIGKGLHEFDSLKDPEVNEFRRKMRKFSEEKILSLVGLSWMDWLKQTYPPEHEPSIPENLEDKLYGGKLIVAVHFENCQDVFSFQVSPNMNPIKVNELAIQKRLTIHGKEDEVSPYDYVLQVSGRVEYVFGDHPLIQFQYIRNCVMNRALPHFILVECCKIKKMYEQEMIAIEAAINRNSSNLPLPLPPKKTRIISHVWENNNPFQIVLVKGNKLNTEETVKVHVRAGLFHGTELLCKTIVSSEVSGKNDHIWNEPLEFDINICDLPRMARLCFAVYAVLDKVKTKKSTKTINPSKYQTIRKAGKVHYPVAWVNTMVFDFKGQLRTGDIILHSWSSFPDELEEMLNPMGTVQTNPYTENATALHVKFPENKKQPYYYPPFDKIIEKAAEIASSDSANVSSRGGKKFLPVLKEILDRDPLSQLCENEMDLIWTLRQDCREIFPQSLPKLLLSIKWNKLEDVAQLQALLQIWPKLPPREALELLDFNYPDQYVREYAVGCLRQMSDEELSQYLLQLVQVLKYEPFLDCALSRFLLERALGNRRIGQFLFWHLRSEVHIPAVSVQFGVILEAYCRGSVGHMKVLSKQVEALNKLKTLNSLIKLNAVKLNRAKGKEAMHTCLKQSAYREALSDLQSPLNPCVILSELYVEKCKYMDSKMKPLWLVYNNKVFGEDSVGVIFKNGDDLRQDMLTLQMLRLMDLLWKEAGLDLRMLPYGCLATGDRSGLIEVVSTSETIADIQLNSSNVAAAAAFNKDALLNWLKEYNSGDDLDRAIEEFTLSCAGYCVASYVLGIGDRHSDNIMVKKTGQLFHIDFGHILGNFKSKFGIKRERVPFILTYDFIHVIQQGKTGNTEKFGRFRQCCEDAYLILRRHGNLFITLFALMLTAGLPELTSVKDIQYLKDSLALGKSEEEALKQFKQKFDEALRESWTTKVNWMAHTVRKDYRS
T2 sequence (P27986 whole entry partner): as the sequence (P27986 whole entry partner) above
T4 sequence (O00329 whole entry): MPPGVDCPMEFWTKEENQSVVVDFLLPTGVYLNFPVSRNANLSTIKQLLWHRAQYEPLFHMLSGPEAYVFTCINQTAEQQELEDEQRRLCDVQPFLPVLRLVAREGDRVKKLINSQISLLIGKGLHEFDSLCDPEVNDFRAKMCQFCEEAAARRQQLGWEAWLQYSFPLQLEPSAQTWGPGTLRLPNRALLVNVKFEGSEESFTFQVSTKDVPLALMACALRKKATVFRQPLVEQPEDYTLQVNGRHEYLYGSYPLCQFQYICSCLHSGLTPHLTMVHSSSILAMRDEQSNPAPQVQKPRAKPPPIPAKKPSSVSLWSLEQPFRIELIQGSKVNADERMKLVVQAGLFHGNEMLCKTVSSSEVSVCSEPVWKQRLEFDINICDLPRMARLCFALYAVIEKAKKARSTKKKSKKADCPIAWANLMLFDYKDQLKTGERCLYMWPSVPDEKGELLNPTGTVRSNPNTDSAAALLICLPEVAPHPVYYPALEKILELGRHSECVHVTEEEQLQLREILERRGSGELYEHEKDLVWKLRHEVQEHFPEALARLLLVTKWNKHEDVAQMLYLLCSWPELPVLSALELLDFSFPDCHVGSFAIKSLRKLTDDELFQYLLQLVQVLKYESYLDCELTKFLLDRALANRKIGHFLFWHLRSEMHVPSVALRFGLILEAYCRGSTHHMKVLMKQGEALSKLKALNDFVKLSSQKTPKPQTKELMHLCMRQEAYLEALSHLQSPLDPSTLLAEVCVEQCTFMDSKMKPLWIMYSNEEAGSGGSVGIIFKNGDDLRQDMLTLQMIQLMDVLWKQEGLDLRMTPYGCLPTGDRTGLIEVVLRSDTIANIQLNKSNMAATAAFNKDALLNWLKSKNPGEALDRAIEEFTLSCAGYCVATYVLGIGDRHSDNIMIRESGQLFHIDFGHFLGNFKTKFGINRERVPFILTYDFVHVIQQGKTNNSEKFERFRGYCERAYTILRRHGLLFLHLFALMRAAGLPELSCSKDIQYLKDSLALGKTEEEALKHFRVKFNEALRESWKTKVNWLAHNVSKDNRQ
T4 sequence (P27986 whole entry partner): as the sequence (P27986 whole entry partner) above

Compound	IC50 (PI3Kγ)	IC50 (PI3Kβ)	IC50 (PI3Kα)	IC50 (PI3Kδ)	IC50 (Balb/c splenic B cells)
Cc1cccc2cc([C@H](C)Nc3ncnc4[nH]cnc34)nc(OC3CCN(C(C)C)CC3)c12 [Compound 57]	> 10000 nM	< 10000 nM	> 10000 nM	< 100 nM	< 1000 nM
C[C@H](Nc1ncnc2[nH]cnc12)c1cc2c(F)ccc(Cl)c2c(CCN2CCOCC2)n1 [Compound 68]	< 10000 nM	> 10000 nM	< 10000 nM	< 100 nM	< 100 nM
C[C@H](Nc1ccnc2ccnn12)c1cc2cccc(Cl)c2c(CCN2CCOCC2)n1 [Compound 73]	< 10000 nM	< 1000 nM	< 10000 nM	< 100 nM	< 100 nM
C[C@H](Nc1ncnc2ccccc12)c1cc2cccc(Cl)c2c(CCN2CCOCC2)n1 [Compound 74]	< 10000 nM	< 10000 nM	< 10000 nM	< 100 nM	< 1000 nM
C[C@H](Nc1ncnc2cccnc12)c1cc2cccc(Cl)c2c(CCN2CCOCC2)n1 [Compound 75]	< 1000 nM	< 1000 nM	< 1000 nM	< 100 nM	< 100 nM
C[C@H](Nc1ccnn2ccnc12)c1cc2ccccc2c(CCN2CCOCC2)n1 [Compound 77, (S)—N-(1-(1-(2-morpholinoethyl)isoquinolin-3-yl)ethyl)imidazo[1,2-b]pyridazin-8-amine]	> 10000 nM	> 10000 nM	> 10000 nM	< 100 nM	< 100 nM
C[C@H](Nc1ncnc2[nH]cnc12)c1nc(CCN2CCOCC2)c2c(Cl)cccc2c1F [Compound 85, (S)—N-(1-(8-chloro-4-fluoro-1-(2-morpholinoethyl)isoquinolin-3-yl)ethyl)-9H-purin-6-amine]	> 10000 nM	> 10000 nM	> 10000 nM	< 1000 nM	< 1000 nM
CC(C)N1CCN(c2nc([C@H](C)Nc3ncnc4[nH]cnc34)cc3cccc(Cl)c23)CC1 [Compound 90]	< 10000 nM	< 10000 nM	< 10000 nM	< 100 nM	< 100 nM
CCN1CCN(c2nc([C@H](C)Nc3ncnc4[nH]cnc34)cc3cccc(Cl)c23)CC1 [Compound 91]	< 10000 nM	< 10000 nM	< 10000 nM	< 100 nM	< 100 nM
Cc1cccc2cc([C@H](C)Nc3ncnc4[nH]cnc34)nc(OCC3CCN(C)CC3)c12 [Compound 92]	< 10000 nM	< 10000 nM	< 10000 nM	< 100 nM	< 100 nM
C[C@H](Nc1ncnc2[nH]cnc12)c1cc2cccc(Cl)c2c(SCCN2CCOCC2)n1 [Compound 93, (S)—N-(1-(8-chloro-1-(2-morpholinoethylthio)isoquinolin-3-yl)ethyl)-9H-purin-6-amine]	< 1000 nM	< 1000 nM	< 10000 nM	< 100 nM	< 100 nM
C[C@H](Nc1ncnc2scnc12)c1cc2cccc(Cl)c2c(N2CCN(C)CC2)n1 [Compound 98]	< 10000 nM	< 1000 nM	< 10000 nM	< 100 nM	< 100 nM
CC(C)N1CCC(Oc2nc([C@H](C)Nc3ccnc4ccnn34)cc3cccc(Cl)c23)CC1 [Compound 107]	< 10000 nM	< 10000 nM	< 10000 nM	< 100 nM	< 100 nM
CC(C)N1CCC(Oc2nc([C@H](C)Nc3ncnc4cccnc34)cc3cccc(Cl)c23)CC1 [Compound 108]	< 100 nM	> 10000 nM	< 10000 nM	< 100 nM	< 1000 nM
C[C@H](Nc1ncnc2scnc12)c1cc2cccc(Cl)c2c(C(=O)N2CCOCC2)n1 [Compound 116]	< 1000 nM	< 1000 nM	< 10000 nM	< 100 nM	< 100 nM
C[C@H](Nc1ncnc2ccccc12)c1cc2cccc(Cl)c2c(C(=O)N2CCOCC2)n1 [Compound 119]	< 1000 nM	> 10000 nM	< 10000 nM	< 100 nM	< 1000 nM
C[C@H](Nc1ncnc2cccnc12)c1cc2cccc(Cl)c2c(C(=O)N2C3CCC2COC3)n1 [Compound 123]	< 1000 nM	< 10000 nM	< 10000 nM	< 100 nM	< 100 nM
C[C@H](Nc1ncnc2scnc12)c1cc2cccc(Cl)c2c(C(=O)N2C3CCC2COC3)n1 [Compound 124]	< 1000 nM	< 1000 nM	< 10000 nM	< 100 nM	< 100 nM
C[C@H](Nc1ccnc2ccnn12)c1cc2cccc(Cl)c2c(C(=O)N2C3CCC2COC3)n1 [Compound 125]	< 10000 nM	< 10000 nM	> 10000 nM	< 100 nM	< 100 nM
Cc1cccc2cc([C@H](C)Nc3ncnc4[nH]cnc34)nc(C(=O)N3C4CCC3COC4)c12 [Compound 149]	< 10000 nM	> 10000 nM	> 10000 nM	< 100 nM	< 100 nM

The next lines start with results.

IC50 (PI3Kγ)	IC50 (PI3Kβ)	IC50 (PI3Kα)	IC50 (PI3Kδ)	Compound	IC50 (Balb/c splenic B cells)
< 1000 nM	< 10000 nM	< 10000 nM	< 100 nM	C[C@H](Nc1ccnc2ccnn12)c1cc2cccc(Cl)c2c(C(=O)N2CCOCC2)n1 [Compound 120]	< 100 nM
< 1000 nM	< 1000 nM	< 1000 nM	< 100 nM	C[C@H](Nc1ncnc2scnc12)c1cc2cccc(Cl)c2c(OCCN2CCCC2)n1 [Compound 121]	< 100 nM
< 10000 nM	< 10000 nM	< 10000 nM	< 100 nM	CC(C)N1CCC(Oc2nc([C@H](C)Nc3ncnc4scnc34)cc3cccc(Cl)c23)CC1 [Compound 122]	< 1000 nM
< 1000 nM	< 1000 nM	< 10000 nM	< 100 nM	C[C@H](Nc1ncnc2[nH]cnc12)c1cc2cccc(Cl)c2c([S+]([O-])CCN2CCOCC2)n1 (some centres unmarked) [Compound 129]	< 1000 nM
> 10000 nM	< 10000 nM	> 10000 nM	< 100 nM	C[C@H](Nc1ncnc2[nH]cnc12)c1cc2cccc(Cl)c2c(SCCN2CCCC2)n1 [Compound 135]	< 1000 nM
< 10000 nM	< 10000 nM	< 10000 nM	< 100 nM	C[C@H](Nc1ncnc2[nH]cnc12)c1cc2cccc(Cl)c2c([S+]([O-])CCN2CCCC2)n1 (some centres unmarked) [Compound 136]	< 100 nM
< 10000 nM	> 10000 nM	> 10000 nM	< 100 nM	C[C@H](Nc1ncnc2scnc12)c1cc2cccc(Cl)c2c(C(=O)NC2CCOCC2)n1 [Compound 144]	< 100 nM
> 10000 nM	< 10000 nM	> 10000 nM	< 100 nM	Cc1cccc2cc([C@H](C)Nc3ncnc4[nH]cnc34)nc(OCCN3CCCC3)c12 [Compound 145]	< 100 nM
< 10000 nM	< 10000 nM	> 10000 nM	< 100 nM	Cc1cccc2cc([C@H](C)Nc3ncnc4[nH]cnc34)nc(CCN3CCOCC3)c12 [Compound 146]	< 100 nM
< 10000 nM	< 10000 nM	> 10000 nM	< 100 nM	C[C@H](Nc1ncnc2[nH]cnc12)c1cc2cccc(-c3cnn(C)c3)c2c(OCCN2CCCC2)n1 [Compound 151]	< 100 nM
> 10000 nM	< 10000 nM	> 10000 nM	< 100 nM	CC(C)N1CCC(Oc2nc([C@H](C)Nc3ncnc4[nH]cnc34)cc3cccc(-c4cnn(C)c4)c23)CC1 [Compound 158]	< 1000 nM
< 10000 nM	> 10000 nM	< 10000 nM	< 100 nM	CC(C)N1CCC(Oc2nc([C@H](C)Nc3ncnc4cccnc34)cc3cccc(-c4cnn(C)c4)c23)CC1 [Compound 160]	< 100 nM
< 1000 nM	< 10000 nM	< 1000 nM	< 100 nM	Cc1cccc2cc([C@H](C)Nc3ncnc4cccnc34)nc(OCCN3CCCC3)c12 [Compound 162]	< 100 nM
< 10000 nM	> 10000 nM	< 10000 nM	< 100 nM	Cc1cccc2cc([C@H](C)Nc3ncnc4cccnc34)nc(OC3CCN(C(C)C)CC3)c12 [Compound 163]	< 100 nM
